Data from patent US20220330549A1, “USE OF N-BENZYLBENZAMIDE-BASED COMPOUND AS HERBICIDE” (Northwest A&F University, priority 2020, published 2022).

Columns and labels:
Format in all cases: in vivo
goosegrass = assay: Field test for weed control in a corn field; conditions: 150 g a.i./ha, after treatment
Procedure: (§1) The weed control efficacy field test was performed in a corn field with some of the N-benzylbenzamide-based compounds of general formula I or II with reference to the method of GB/T 17980.42-2000. […] Spray treatments were performed in the stage where 2 leaves to 5 leaves were grown for the corns after the sowing. Representative compounds in the examples were used to prepare emulsifiable concentrates (10%), and spray treatments were performed with the concentrates in water at a dosage of 150 g(a.i.)/ha, and repeated 4 times for each treatment, and the area was 20 m^2. Oil dispersion with 25% of mesotrione was used as a control agent and applied at a dosage of 150 g(a.i.)/h. […] The herbicidal activities of the agents were evaluated on a scale of 1-9 levels according to the symptoms and severity of damage to the test weeds.
(§2) Level 2: equivalent to 0 to 2.5% of the weed in the blank control area;
(§3) Level 3: equivalent to 2.6 to 5% of the weed in the blank control area;
(§4) Level 4: equivalent to 5.1 to 10% of the weed in the blank control area;
(§5) Level 5: equivalent to 10.1 to 15% of the weed in the blank control area;
(§6) Level 6: equivalent to 15.1 to 25% of the weed in the blank control area;
(§7) Level 7: equivalent to 25.1 to 35% of the weed in the blank control area;
(§8) Level 8: equivalent to 35.1 to 67.5% of the weed in the blank control area; and
(§9) Level 9: equivalent to 67.6 to 100% of the weed in the blank control area.

nutgrass flatsedge = assay: Field test for weed control in a corn field; conditions: 150 g a.i./ha, after treatment
Procedure: as §1, §2, §3, §4, §5, §6, §7, §8, §9

Amaranthus retroflexus [1] = assay: Field test for weed control in a corn field; conditions: 150 g a.i./ha, 30 days after treatment
Procedure: as §1, §2, §3, §4, §5, §6, §7, §8, §9

Solanum nigrum = assay: Field test for weed control in a corn field; conditions: 150 g a.i./ha, 30 days after treatment
Procedure: as §1, §2, §3, §4, §5, §6, §7, §8, §9

Convolvulus arvensis = assay: Field test for weed control in a corn field; conditions: 150 g a.i./ha, after treatment
Procedure: as §1, §2, §3, §4, §5, §6, §7, §8, §9

Portulaca oleracea = assay: Field test for weed control in a corn field; conditions: 150 g a.i./ha, after treatment
Procedure: as §1, §2, §3, §4, §5, §6, §7, §8, §9

Barnyard grass [2] = assay: Field test for weed control in a corn field; conditions: 150 g a.i./ha, 30 days after treatment
Procedure: as §1, §2, §3, §4, §5, §6, §7, §8, §9

Acalypha australis = assay: Field test for weed control in a corn field; conditions: 150 g a.i./ha, after treatment
Procedure: as §1, §2, §3, §4, §5, §6, §7, §8, §9

Digitaria sanguinalis [3] = assay: Field test for weed control in a corn field; conditions: 150 g a.i./ha, after treatment
Procedure: as §1, §2, §3, §4, §5, §6, §7, §8, §9

green bristlegrass [4] = assay: Field test for weed control in a corn field; conditions: 150 g a.i./ha, after treatment
Procedure: as §1, §2, §3, §4, §5, §6, §7, §8, §9

Chenopodium album = assay: Field test for weed control in a corn field; conditions: 150 g a.i./ha, after treatment
Procedure: as §1, §2, §3, §4, §5, §6, §7, §8, §9

Amaranthus retroflexus [5] = assay: Herbicidal activity test for indoor pre-emergence soil treatment; design: key: 1-9 levels; higher = more weed remaining vs blank control; conditions: 150 g a.i./ha, visual inspection 21 days after treatment
Procedure: (§10) The herbicidal activity test for indoor pre-emergence soil treatment was performed with some of the N-benzylbenzamide-based compounds of general formula I or II with reference to the method of NY/T 1155.3-2006. Neutral sandy loam soil having an organic content of ≤2% was added to fill ⅘ of the pot, and the soil was completely moistened by infiltrating irrigation from the bottom of the pot. The seeds of the test weed were evenly spread on the soil surface, and then covered by 0.5 cm to 2.0 cm of soil depending on the seed size. Representative compounds in the examples were used to prepare emulsifiable concentrates (10%), and spray treatments to the soil were performed 24 hours after the sowing with the test agents diluted with water, at a spraying dosage of 150 g(a.i.)/ha. Then, the results were investigated by visual inspection 21 days after the treatments. The herbicidal activity of the agent was evaluated on a scale of 1-9 levels according to the symptoms and severity of damage to the test weeds.
as §2, §3, §4, §5, §6, §7, §8, §9

Digitaria sanguinalis [6] = assay: as above; design: key: 1-9 levels; higher = more weed remaining vs blank control; conditions: 150 g a.i./ha, visual inspection 21 days after treatment
Procedure: as §10, §2, §3, §4, §5, §6, §7, §8, §9

Piemarker [7] = assay: Herbicidal activity test for indoor post-emergence spraying on stems and leaves; design: key: grade level by weed remaining vs blank control, e.g. 5 = 10.1-15%; conditions: 150 g a.i./ha, visual inspection 21 days after treatment
Procedure: (§11) The post-emergence herbicidal activity test was performed with some of the N-benzylbenzamide-based compounds of general formula I or II with reference to the method of NY/T 1155.4-2006. […] After the sowing, the weed was moved to a greenhouse for regular cultivation. […] Then, the results were investigated by visual inspection 21 days after the treatments. […] Level 5: equivalent to 10.1 to 15% of the weed in the blank control area; Level 6: equivalent to 15.1 to 25% of the weed in the blank control area; Level 7: equivalent to 25.1 to 35% of the weed in the blank control area; Level 8: equivalent to 35.1 to 67.5% of the weed in the blank control area; and […]

Amaranthus retroflexus [8] = assay: as above; design: key: grade level by weed remaining vs blank control, e.g. 5 = 10.1-15%; conditions: 150 g a.i./ha, visual inspection 21 days after treatment
Procedure: as §11

Barnyard grass [9] = assay: as above; design: key: grade level by weed remaining vs blank control, e.g. 5 = 10.1-15%; conditions: 150 g a.i./ha, visual inspection 21 days after treatment
Procedure: as §11

Digitaria sanguinalis [10] = assay: as above; design: key: grade level by weed remaining vs blank control, e.g. 5 = 10.1-15%; conditions: 150 g a.i./ha, visual inspection 21 days after treatment
Procedure: as §11

green bristlegrass [11] = assay: as above; design: key: grade level by weed remaining vs blank control, e.g. 5 = 10.1-15%; conditions: 150 g a.i./ha, visual inspection 21 days after treatment
Procedure: as §11

Humulus scandens [12] = assay: as above; design: key: grade level by weed remaining vs blank control, e.g. 5 = 10.1-15%; conditions: 150 g a.i./ha, visual inspection 21 days after treatment
Procedure: as §11

Humulus scandens [13] = assay: Herbicidal activity test for indoor pre-emergence soil treatment; conditions: 150 g a.i./ha, visual inspection 21 days after treatment
Procedure: as §10, §2, §3, §4, §5, §6, §7, §8, §9

Piemarker [14] = assay: as above; design: key: level 1-9; higher = more weed remaining vs blank control; conditions: 150 g a.i./ha, visual inspection 21 days after treatment
Procedure: as §10, §2, §3, §4, §5, §6, §7, §8, §9

Barnyard grass [15] = assay: as above; design: key: level 1-9; higher = more weed remaining vs blank control; conditions: 150 g a.i./ha, visual inspection 21 days after treatment
Procedure: as §10, §2, §3, §4, §5, §6, §7, §8, §9

green bristlegrass [16] = assay: as above; design: key: level 1-9; higher = more weed remaining vs blank control; conditions: 150 g a.i./ha, visual inspection 21 days after treatment
Procedure: as §10, §2, §3, §4, §5, §6, §7, §8, §9

Cyperaceae = assay: Post-emergence herbicidal activity test in a paddy field; design: key: level scale; higher level = more weed left vs blank control; conditions: 150 g a.i./ha (penoxsulam control 250 g(a.i.)/h)
Procedure: (§12) The post-emergence herbicidal activity test was performed in a paddy field with some of the N-benzylbenzamide-based compounds of general formula I or II with reference to the method of GB/T 17980.40-2000. […] Spray treatments were performed in the stage where 4 leaves to 5 leaves were grown for the rice seedlings which was about 1 month after the sowing. Representative compounds in the examples were used to prepare emulsifiable concentrates (10%), and spray treatments were performed with the concentrates in water at a dosage of 150 g(a.i.)/ha, and repeated 4 times for each treatment, and the area was 50 m^2. 25 g/L of penoxsulam suspension was used as a control agent and applied at a dosage of 250 g(a.i.)/h. The results were investigated by a value estimating survey method 15 days and 30 days after the treatments. The relative weed population quantities were estimated by comparing each agent treated area with an adjacent blank control area, and the results of which were investigated with the following grading standard method using the overall coverage of the weed population as an indicator.
as §2, §3, §4, §5, §6, §7, §8, §9

Gramineae = assay: as above; design: key: level scale; higher level = more weed left vs blank control; conditions: 150 g a.i./ha (penoxsulam control 250 g(a.i.)/h)
Procedure: as §12, §2, §3, §4, §5, §6, §7, §8, §9

Broadleaf weed = assay: as above; design: key: level scale; higher level = more weed left vs blank control; conditions: 150 g a.i./ha (penoxsulam control 250 g(a.i.)/h)
Procedure: as §12, §2, §3, §4, §5, §6, §7, §8, §9

| Compound | Post-emergence weed control effect, Goose grass (goosegrass) | Post-emergence weed control effect, Nutgrass flatsedge (nutgrass flatsedge) | Post-emergence weed control effect, Amaranthus retroflexus (Amaranthus retroflexus [1]) | Post-emergence weed control effect, Solanum nigrum (Solanum nigrum) | Post-emergence weed control effect, Convolvulus arvensis (Convolvulus arvensis) | Post-emergence weed control effect, Portulaca oleracea (Portulaca oleracea) | Post-emergence weed control effect, Barnyard grass (Barnyard grass [2]) | Post-emergence weed control effect, Acalypha australis (Acalypha australis) | Post-emergence weed control effect, Digitaria sanguinalis (Digitaria sanguinalis [3]) | Post-emergence weed control effect, Green bristlegrass (green bristlegrass [4]) | Post-emergence weed control effect, Chenopodium album (Chenopodium album) | Herbicidal Activity Amaranthus retroflexus (Amaranthus retroflexus [5]) | Herbicidal Activity Digitaria sanguinalis (Digitaria sanguinalis [6]) | Herbicidal Activity Piemarker (Piemarker [7]) | Herbicidal Activity Amaranthus retroflexus (Amaranthus retroflexus [8]) | Herbicidal Activity Barnyard grass (Barnyard grass [9]) | Herbicidal Activity Digitaria sanguinalis (Digitaria sanguinalis [10]) | Herbicidal Activity Green bristlegrass (green bristlegrass [11]) | Herbicidal Activity Humulus scandens (Humulus scandens [12]) | Herbicidal Activity Humulus scandens (Humulus scandens [13]) | other results |
| --- | --- | --- | --- | --- | --- | --- | --- | --- | --- | --- | --- | --- | --- | --- | --- | --- | --- | --- | --- | --- | --- |
| COc1ccccc1C(=O)NCc1cc(F)cc(Cl)c1 [Compound A07, N-(3-chloro-5-fluorobenzyl)-2-methoxybenzamide] | 2 (equivalent to 0 to 2.5% of the weed in the blank control area) | 2 (equivalent to 0 to 2.5% of the weed in the blank control area) | 1 | 2 (equivalent to 0 to 2.5% of the weed in the blank control area) | 1 | 1 | 2 (equivalent to 0 to 2.5% of the weed in the blank control area) | 2 (equivalent to 0 to 2.5% of the weed in the blank control area) | 2 (equivalent to 0 to 2.5% of the weed in the blank control area) | 2 (equivalent to 0 to 2.5% of the weed in the blank control area) | 1 | 1 | 1 | 1 | 1 | 1 | 1 | 2 (equivalent to 0 to 2.5% of the weed in the blank control area) | 1 | 3 (equivalent to 2.6 to 5% of the weed in the blank control area) | Herbicidal Activity Piemarker (Piemarker [14]): 1; Herbicidal Activity Barnyard grass (Barnyard grass [15]): 1; Herbicidal Activity Green bristlegrass (green bristlegrass [16]): 2 (equivalent to 0 to 2.5% of the weed in the blank control area); Herbicidal activity 15 days after treatment Cyperaceae (Cyperaceae): 1; Herbicidal activity 30 days after treatment Cyperaceae (Cyperaceae): 2 (equivalent to 0 to 2.5% of the weed in the blank control area); Herbicidal activity 15 days after treatment Gramineae (Gramineae): 2 (equivalent to 0 to 2.5% of the weed in the blank control area); Herbicidal activity 30 days after treatment Gramineae (Gramineae): 2 (equivalent to 0 to 2.5% of the weed in the blank control area); Herbicidal activity 15 days after treatment Broadleaf weed (Broadleaf weed): 2 (equivalent to 0 to 2.5% of the weed in the blank control area); Herbicidal activity 30 days after treatment Broadleaf weed (Broadleaf weed): 1 |
| Cc1cccc(C(=O)NCc2cc(F)cc(Cl)c2)c1 [Compound B07] | 2 (equivalent to 0 to 2.5% of the weed in the blank control area) | 2 (equivalent to 0 to 2.5% of the weed in the blank control area) | 1 | 2 (equivalent to 0 to 2.5% of the weed in the blank control area) | 1 | 1 | 1 | 2 (equivalent to 0 to 2.5% of the weed in the blank control area) | 2 (equivalent to 0 to 2.5% of the weed in the blank control area) | 2 (equivalent to 0 to 2.5% of the weed in the blank control area) | 1 | 2 (equivalent to 0 to 2.5% of the weed in the blank control area) | 1 | 1 | 1 | 1 | 1 | 1 | 1 | 3 (equivalent to 2.6 to 5% of the weed in the blank control area) | Herbicidal Activity Piemarker (Piemarker [14]): 1; Herbicidal Activity Barnyard grass (Barnyard grass [15]): 1; Herbicidal Activity Green bristlegrass (green bristlegrass [16]): 1; Herbicidal activity 15 days after treatment Cyperaceae (Cyperaceae): 1; Herbicidal activity 30 days after treatment Cyperaceae (Cyperaceae): 1; Herbicidal activity 15 days after treatment Gramineae (Gramineae): 2 (equivalent to 0 to 2.5% of the weed in the blank control area); Herbicidal activity 30 days after treatment Gramineae (Gramineae): 2 (equivalent to 0 to 2.5% of the weed in the blank control area); Herbicidal activity 15 days after treatment Broadleaf weed (Broadleaf weed): 1; Herbicidal activity 30 days after treatment Broadleaf weed (Broadleaf weed): 1 |
